Biological target: Platelet-activating factor receptor (Canis lupus familiaris)
Test: Inhibition of [3H]PAF binding to dog platelets.

| IC50 [nM] | SMILES |
| --- | --- |
| 400 | CC[C@@H](CCCc1cccnc1)NC(=O)/C=C/C=C(c1ccc(OC)cc1)c1ccc(OC)cc1 |
| 40 | COc1ccc(/C(=C/C=C/C(=O)N[C@H](C)CCCc2cccnc2)C(C)C)cc1 |
| 300 | COc1cccc(C(=C/C=C/C(=O)N[C@@H](C)CCCc2cccnc2)c2cccc(OC)c2)c1 |
| 30 | COc1ccc(C(=C/C=C/C(=O)NC(C)CCCc2cccnc2C)c2ccc(OC)cc2)cc1 (stereo unspecified) |
| 25 | COc1ccc(/C(C)=C/C=C/C(=O)N[C@H](C)CCCc2cccnc2)cc1 |
| 30 | CC/C(=C\C=C\C(=O)N[C@H](C)CCCc1cccnc1)c1ccc(OC)cc1 |
| 5 | CCCCCCCC/C(=C\C=C\C(=O)N[C@H](C)CCCc1cccnc1)c1ccc(OC)cc1 |
| 4 | COc1ccc(/C(=C\C=C\C(=O)N[C@H](C)CCCc2cccnc2)c2ccccc2)cc1 |

Further lines, the compound ahead of its results:

| SMILES | IC50 [nM] |
| --- | --- |
| COc1cccc(/C(=C/C=C/C(=O)NCCCCc2cccnc2)c2cccc(F)c2)c1 | 40 |
| COc1ccc(C(=C/C=C/C(=O)NCCOCc2cccnc2)c2ccc(OC)cc2)cc1 | 250 |
| O=C(/C=C/C=C(c1ccc(Cl)cc1)c1ccc(Cl)cc1)NCCCCc1cccnc1 | 60 |

Biological target: Platelet-activating factor receptor (Canis lupus familiaris)
Test: Inhibition of [3H]PAF binding to dog platelets.
Remark: another data set of the same source

| IC50 [nM] | SMILES |
| --- | --- |
| 120 | CC[C@H](CCCc1cccnc1)NC(=O)/C=C/C=C(c1ccc(OC)cc1)c1ccc(OC)cc1 |
| 10 | CCCCC/C(=C/C=C/C(=O)N[C@H](C)CCCc1cccnc1)c1ccc(OC)cc1 |
| 2 | COc1ccc(/C(=C/C=C/C(=O)N[C@H](C)CCCc2cccnc2)c2ccccc2)cc1 |
| 50 | CCC/C(=C\C=C\C(=O)N[C@H](C)CCCc1cccnc1)c1ccc(OC)cc1 |
| 250 | Cc1ccc(C(=C/C=C/C(=O)N[C@H](C)CCCc2cccnc2)c2ccc(C)cc2)cc1 |
| 20 | COc1ccc(/C(=C\C=C\C(=O)N[C@H](C)CCCc2cccnc2)C2CCCCC2)cc1 |
| 20 | COc1ccc(/C(=C/C=C/C(=O)N[C@H](C)CCCc2cccnc2)C2CCCCC2)cc1 |
| > 1000 | COc1ccc(C(=C/C=C/C(=O)N[C@@H](CCCc2cccnc2)C2CCCC2)c2ccc(OC)cc2)cc1 |
| > 1000 | CCC[C@H](CCCc1cccnc1)NC(=O)/C=C/C=C(c1ccc(OC)cc1)c1ccc(OC)cc1 |
| 25 | COc1ccc(C(=C/C=C/C(=O)NCCCCc2cccnc2)c2ccc(OC)cc2)cc1 |
| > 1000 | CCCC[C@H](CCCc1cccnc1)NC(=O)/C=C/C=C(c1ccc(OC)cc1)c1ccc(OC)cc1 |
| 60 | COc1ccc(C(=C/C=C/C(=O)N[C@@H](CCCc2cccnc2)C2CC2)c2ccc(OC)cc2)cc1 |
| 14 | CCCC/C(=C\C=C\C(=O)N[C@H](C)CCCc1cccnc1)c1ccc(OC)cc1 |
| 50 | COc1ccc(C(=C/C=C/C(=O)N[C@H](C)CCCc2cccnc2)c2ccc(OC)c(OC)c2)cc1OC |
| 30 | COc1ccc(/C=C/C=C/C(=O)N[C@H](C)CCCc2cccnc2)cc1 |
| 35 | COc1cccc(C(=C/C=C/C(=O)N[C@H](C)CCCc2cccnc2)c2cccc(OC)c2)c1 |

Further lines, the compound ahead of its results:

| SMILES | IC50 [nM] |
| --- | --- |
| O=C(C=C(c1ccccc1)c1ccccc1)NCCCCc1cccnc1 | 450 |
| COc1ccc(C(=C/C=C/C(=O)Nc2ccc(-c3cccnc3)cc2)c2ccc(OC)cc2)cc1 | 10 |
| COc1ccc(C(=C/C=C/C(=O)NCCCCc2cccnc2)c2ccc(OC)c(OC)c2)cc1OC | 55 |
| COc1ccc(C(=C/C=C/C(=O)NC(C)(C)CCCc2cccnc2)c2ccc(OC)cc2)cc1 | 85 |
| COc1ccc(C(=C/C=C/C(=O)Nc2ccc(Cc3cccnc3)cc2)c2ccc(OC)cc2)cc1 | 250 |
| O=C(CCCCC=C(c1ccccc1)c1ccccc1)NCCCCc1cccnc1 | 550 |
| COc1cccc(/C(=C\C=C\C(=O)NCCCCc2cccnc2)c2cccc(F)c2)c1 | 25 |
| COc1ccccc1C(=C/C=C/C(=O)NCCCCc1cccnc1)c1ccccc1OC | 40 |
| O=C(C/C=C/C=C(c1ccccc1)c1ccccc1)NCCCCc1cccnc1 | 55 |
| O=C(/C=C/C=C(c1cccc(F)c1)c1cccc(F)c1)NCCCCc1cccnc1 | 20 |
| O=C(CCC=C(c1ccccc1)c1ccccc1)NCCCCc1cccnc1 | 100 |
| O=C(/C=C\C=C(c1ccccc1)c1ccccc1)NCCCCc1cccnc1 | 400 |
| O=C(/C=C/C=C(c1ccc(F)cc1)c1ccc(F)cc1)NCCCCc1cccnc1 | 40 |
| COc1cccc(C(=C/C=C/C(=O)NCCCCc2cccnc2)c2cccc(OC)c2)c1 | 2 |
